From US8084602B2, “Porphyrin derivatives and their use in photodynamic therapy” (Destiny Pharma Limited, priority 2002, dated 2011)
Like-named read-outs stand apart in the source and are kept apart here.

Legend:
[1] = system: Escherichia coli (strain ATCC 25922); assay: Initial screening: growth inhibition after white light illumination; format: cell-based; conditions: for Growth inhibition (%): E. coli, 3 μM, 5 min incubation; for inhibition at 3 µM: Escherichia coli
Description: (§1) The toxic effects of exemplary compounds of the invention against two bacterial strains, the Gram negative bacterium Escherichia coli (strain ATCC 25922) and the Gram positive bacterium Staphylococcus aureus (methicillin-resistant strain ATTC BAA-44), were evaluated by measuring the extent of growth inhibition (bacteriostatic effect) and growth […] (cytocidal effect) in the dark and upon light exposure. Initial compound screening was undertaken using white light [390-740 nm] (150 mW/cm^2) for various timepoints of a concentration of 3 μM (see Table 1). Further experiments were undertaken on those compounds identified from this initial screen using a light source emitting light at a wavelength between 417-420 nm at 15.2 mW/cm^2, 13.68 J/cm^2 (Waldmann Eclairage SA, France) (see Table 20.
(§2) The following protocol was used for the initial screening of the exemplary compounds (Table 1) (see Reddi et al., 2002, Photochem. Photobiol. 75(5):462-470): • (i) E. coli and S. aureus cells were grown overnight on brain heart infusion agar, resuspended in brain heart infusion broth, harvested by centrifugation (3000 g for 15 minutes) and washed once with phosphate buffered saline (PBS) at pH 7.4 consisting 2.7 mM KCl and 0.14 M NaCl. • (ii) The cells were then resuspended in PBS to an optical density at 650 nm of 0.7, which corresponds to a density of 10^8 to 10^9 cells/ml. • (iii) Next, the cells were incubated in PBS in the dark for 5 minutes with 3.0 μM of the compound to be tested. • (iv) After dark incubation, cells were illuminated with white light (wavelength: 390 to 740 nm) (150 mW/cm^2) for up to 30 minutes. During illumination, the cells were kept at 37° C. and magnetically stirred. • (v) Finally, treated and untreated (control) cells were diluted in brain heart infusion broth and maintained at […] while the absorbance of the suspension at 650 nm was monitored at predetermined time points for determining growth curves.
(§3) The percent of growth inhibition in the treated cells was calculated by the following equation: [1−(Ax−A0)/(Ac−A0)]×100 where Ax Ac are the absorbances measured after 3 hours incubation, for the treated and control cell suspensions, respectively, and A0 represents the initial absorbance.

[2] = system: Staphylococcus aureus (methicillin-resistant strain ATTC BAA-44); assay: as above; format: cell-based; conditions: for Growth inhibition (%): S. aureus, 3 μM, 5 min incubation; for inhibition at 3 µM: Staphylococcus aureus
Description: as §1, §2, §3

[3] = system: S. aureus ATCC BAA-44 (a methicillin resistant S. aureus); assay: Cell survival (colony forming unit) with or without illumination; format: cell-based, Staphylococcus aureus; conditions: S. aureus
Description: as §1
For the further investigation of the exemplary compounds (Table 2), the following protocol was adopted: • (i) Bacteria (S. aureus BAA-44 and E. coli 25922) were grown in brain heart infusion (BHI) broth until they reached the stationary phase of growth. • (ii) The cells were harvested by centrifugation (3000 g for 15 min) with a table centrifuge, washed with 10 mM PBS at pH 7.4 containing 2.7 mM KCl and 0.14 M NaCl and suspended in PBS at an optical density of 0.7 at 650 nm corresponding to 10^8-10^9 cells/ml. • (iii) The bacteria, at the desired cell density (˜10^8 cells/ml) were incubated for 5 min in the dark with various concentrations of the exemplary compounds. • (iv) At the end of the incubation period the cells were washed three times with PBS, suspended in PBS, transferred into a 96-well microtitre plate (200 μl/well) and illuminated for 15 min with the Waldmann light source (15.2 mW/cm^2; 13.7 J/cm^2). The cells were illuminated from the bottom of the plate laying it on the glass cover of the lamp. • (v) After illumination, cell survival was determined by plating serially diluted aliquots of treated and untreated (i.e. no exemplary compound or light present) cells onto brain heart agar (BHA) and counting the number of colonies after 18-24 h incubation at 37° C.
the above colony forming unit (CFU) protocol was also used to investigate the photodynamic activity of very low concentrations of the compounds of the invention.

[4] = ATCC25922, 5 min, read-out: Growth inhibition (%), E. coli, 5 min incubation, illumination time 5 min
[5] = ATCC25922, read-out: Growth inhibition (%), E. coli, 5 min incubation, illumination time 0 min
[6] = ATCC25922, read-out: Growth inhibition (%), E. coli, 5 min incubation, illumination time 1 min
[7] = ATCC25922, read-out: Growth inhibition (%), E. coli, 5 min incubation, illumination time 10 min
[8] = ATCC25922, read-out: Growth inhibition (%), E. coli, 5 min incubation, illumination time 15 min
[9] = ATCC25922, read-out: Growth inhibition (%), E. coli, 5 min incubation, illumination time 30 min
[10] = BAA44, 5 min, read-out: Growth inhibition (%), S. aureus, 5 min incubation, illumination time 5 min
[11] = BAA44, read-out: Growth inhibition (%), S. aureus, 5 min incubation, illumination time 0 min
[12] = BAA44, read-out: Growth inhibition (%), S. aureus, 5 min incubation, illumination time 1 min
[13] = BAA44, read-out: Growth inhibition (%), S. aureus, 5 min incubation, illumination time 10 min
[14] = BAA44, read-out: Growth inhibition (%), S. aureus, 5 min incubation, illumination time 15 min
[15] = BAA44, read-out: Growth inhibition (%), S. aureus, 5 min incubation, illumination time 30 min

Compound | Growth inhibition (%) ([1]; illumination time 0 min) | Growth inhibition (%) ([1]; illumination time 1 min) | Growth inhibition (%) ([1]; illumination time 5 min) | Growth inhibition (%) ([1]; illumination time 10 min) | Growth inhibition (%) ([1]; illumination time 15 min) | Growth inhibition (%) ([1]; illumination time 30 min) | Growth inhibition (%) ([2]; illumination time 0 min) | Growth inhibition (%) ([2]; illumination time 1 min) | Growth inhibition (%) ([2]; illumination time 5 min) | Growth inhibition (%) ([2]; illumination time 10 min) | Growth inhibition (%) ([2]; illumination time 15 min) | Growth inhibition (%) ([2]; illumination time 30 min) | inhibition at 3 µM [2, 10] | inhibition at 3 µM [2, 11] | inhibition at 3 µM [2, 12] | inhibition at 3 µM [2, 13] | inhibition at 3 µM [2, 14] | inhibition at 3 µM [2, 15] | further results
5,10,15-tris-[4-(3-Trimethyl-ammoniopropyloxy)-phenyl]-20-(4-tetradecyloxy-phenyl)-porphyrin trichloride [Compound 36, reference compound] | 6% | 56% | 84% | 90% | 92% | 95% | 22% | 96% | 100% | 100% | 100% | 100% | – | – | – | – | – | – | –
5,10,15-tris[3-(3-Trimethyl-ammoniopropyloxy)-phenyl]-20-(3-undecyloxy-phenyl)-porphyrin trichloride [Compound 33, reference compound] | 6% | 10% | 25% | 53% | 67% | 78% | 22% | 57% | 99% | 100% | 100% | 100% | – | – | – | – | – | – | –
5,15-bis-[3-(3-Trimethylammmonio-proploxy)-phenyl]-10-undecyl-porphyrin dichloride [Compound 28] | 4% | 21% | 60% | 73% | 81% | 92% | 15% | 91% | 100% | 100% | 100% | 100% | – | – | – | – | – | – | –
5-[4-(3-Dimethyldecyl-ammoniopropyloxy)-phenyl]-15-{4-[3-dimethyl-(3-dimethylaminopropyl)-ammoniopropyloxy]-phenyl}-porphyrin dichloride [Compound 32] | 3% | 10% | 16% | 22% | 22% | 38% | 23% | 100% | 100% | 100% | 100% | 100% | – | – | – | – | – | – | –
5-{4-[3-Dimethyl-(3-trimethylammonio-propyl)-ammonio-propyloxy]-phenyl}-15-(4-dodecyloxy-phenyl)-porphyrin dichloride [Compound 31] | – | – | – | – | – | – | 9% | 28% | 38% | 78% | 82% | 83% | – | – | – | – | – | – | –
CCCCCCCCCCCOc1ccc(-c2c3nc(c(-c4ccc(OCCC[N+](C)(C)C)cc4)c4ccc([nH]4)c(-c4ccc(OCCC[N+](C)(C)C)cc4)c4nc(c(-c5ccc(OCCC[N+](C)(C)C)cc5)c5ccc2[nH]5)C=C4)C=C3)cc1.[Cl-].[Cl-].[Cl-] [Compound 3, 5,10,15-tris-[4-(3-Trimethylammonio-propyloxy)-phenyl]-20-(4-undecyloxy-phenyl)-porphyrin trichloride, reference compound] | – | – | – | – | – | – | – | – | – | – | – | – | 100% | 21% | 83% | 100% | 100% | 100% | inhibition at 3 µM [1, 4]: 99%; inhibition at 3 µM [1, 5]: 5%; inhibition at 3 µM [1, 6]: 68%; inhibition at 3 µM [1, 7]: 100%; inhibition at 3 µM [1, 8]: 99%; inhibition at 3 µM [1, 9]: 99%; Log reduction ([3]; dark toxicity (no illumination), 1 μM): <1 (<10^−1); Log reduction ([3]; dark toxicity (no illumination), 10 μM): >3 (>10^−3); Log reduction ([3]; photodynamic activity, 1 μM, illumination 15 min): >3 (>10^−3); Log reduction ([3]; photodynamic activity, 10 μM, illumination 15 min): >6 (>10^−6)
CCCCCCCCCCCOc1ccc(-c2c3nc(c(-c4ccc(OCCC[N+](CC)(CC)CC)cc4)c4ccc([nH]4)c(-c4ccc(OCCC[N+](CC)(CC)CC)cc4)c4nc(c(-c5ccc(OCCC[N+](CC)(CC)CC)cc5)c5ccc2[nH]5)C=C4)C=C3)cc1 [Compound 16, 5,10,15-tris-[4-(3-Triethylammonio-propyloxy)-phenyl]-20-(4-undecyloxy-phenyl)-porphyrin trichloride, reference compound] | – | – | – | – | – | – | – | – | – | – | – | – | 100% | 12% | 97% | 100% | 100% | 100% | inhibition at 3 µM [1, 4]: 92%; inhibition at 3 µM [1, 5]: 8%; inhibition at 3 µM [1, 6]: 34%; inhibition at 3 µM [1, 7]: 99%; inhibition at 3 µM [1, 8]: 100%; inhibition at 3 µM [1, 9]: 100%
CCCCCCCCCCCOc1ccc(-c2c3nc(c(-c4ccc(OCCCCCCCCCCC)cc4)c4ccc([nH]4)c(-c4ccc(OCCC[N+](C)(C)C)cc4)c4nc(c(-c5ccc(OCCC[N+](C)(C)C)cc5)c5ccc2[nH]5)C=C4)C=C3)cc1 [Compound 29, 5,10-bis-[4-(3-Trimethylammonio-propyloxy)-phenyl]-15,20-bis-(4-undecyloxy-phenyl)-porphyrin dichloride, reference compound] | – | – | – | – | – | – | – | – | – | – | – | – | 49% | 14% | 43% | 53% | 55% | 55% | –
